Six compounds from ChEMBL document CHEMBL1201862, “PubChem BioAssay data set” (2004) can be followed below.

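48-hour exposure; five concentrations; linearly interpolated endpoints. GI50 = concentration required for 50% inhibition of growth.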 Activity calls are given as the source filed them. No stated cut-off is given here; in the data, active = GI50 up to about 1.1 µM and inactive = higher.

Among the test systems are NCI-H23; SK-OV-3; SNB-19; UACC-62; HOP-62; K562; SW-620; HT-29; OVCAR-4; SN12C; OVCAR-5; NCI-H460; HL-60; SK-MEL-2; CCRF-CEM; HCT-15; IGROV-1; UO-31; NCI-H226; SF-539.
Holding throughout (assay): inhibition of tumour cell growth, NCI panel, 48 h

On to `O=C1CCC[C@H]2O[C@@H](COC(=O)c3ccccc3)C[C@H]2O1`, for which the GI50 in the test on NCI-H23, in the test on SK-OV-3, in the test on SNB-19, in the test with UACC-62, with HOP-62 and in the test on K562 was > 100 µM (inactive) in each case. Moreover, the GI50 in the test on SW-620, in the test with HT-29, in the test with OVCAR-4, with SN12C, with OVCAR-5 and in the test on NCI-H460 was > 100 µM (inactive) throughout. Moreover, the GI50 is > 100 µM (inactive) with HL-60; > 100 µM (inactive) in the test on SK-MEL-2; > 100 µM (inactive) with CCRF-CEM; over 100 µM in the test with HCT-15; > 100 µM (inactive) with IGROV-1; > 100 µM (inactive) in the test with UO-31. Besides, the GI50 with NCI-H226 and in the test with SF-539 was > 100 µM (inactive) in each case.

Turning to `CN(C)C(=O)N(CCCl)N=O`, the GI50 in the test with NCI-H23, in the test on SK-OV-3, with SNB-19, in the test with UACC-62, in the test on HOP-62 and in the test with K562 was > 100 µM (inactive) throughout. The GI50 in the test with SW-620, in the test with HT-29, in the test on OVCAR-4, in the test with SN12C, in the test with OVCAR-5 and in the test with NCI-H460 was > 100 µM (inactive) each time. In addition, the GI50 in the test with HL-60 was > 100 µM (inactive); in the test on SK-MEL-2, > 100 µM (inactive); with CCRF-CEM it was > 100 µM (inactive); in the test on HCT-15, over 100 µM; with IGROV-1, > 100 µM (inactive); with UO-31, > 100 µM (inactive). The GI50 with NCI-H226 was > 10 µM (inactive); in the test with SF-539, > 100 µM (inactive).

As to `CC(C)OP(=O)(OC(C)C)C1=NN(c2ccc([N+](=O)[O-])cc2)C(P(=O)(OC(C)C)OC(C)C)=NN1c1ccc([N+](=O)[O-])cc1`, the GI50 with NCI-H23 is > 100 µM (inactive); in the test on SK-OV-3, > 100 µM (inactive); with SNB-19 it was > 100 µM (inactive); in the test on UACC-62, > 100 µM (inactive); in the test on HOP-62 it was > 100 µM (inactive); in the test with K562 it was 6.95 µM (inactive). For the same compound, the GI50 in the test with SW-620 is > 100 µM (inactive); with HT-29 it was 44 µM (inactive); with OVCAR-4, > 100 µM (inactive); in the test on SN12C, 44.7 µM (inactive); with OVCAR-5, > 100 µM (inactive); with NCI-H460, 29.2 µM (inactive). For the same compound, the GI50 in the test on HL-60 is 2.55 µM (inactive); with SK-MEL-2, > 100 µM (inactive); in the test on CCRF-CEM it was 91.4 µM (inactive); with HCT-15, 9.18 µM; in the test on IGROV-1, > 100 µM (inactive); in the test with UO-31 it was 95.7 µM (inactive). In addition, the results for the GI50 with NCI-H226 and in the test with SF-539 were > 100 µM (inactive) and 31 µM (inactive), respectively.

As to `C1=C(c2ccccc2)SC(N2CCCCC2)S1` (stereo not given), the GI50 was > 100 µM (inactive) with NCI-H23; > 100 µM (inactive) with SK-OV-3; > 100 µM (inactive) in the test with SNB-19; > 100 µM (inactive) in the test on UACC-62; > 100 µM (inactive) in the test on HOP-62; 52.2 µM (inactive) with K562. Further, the GI50 with SW-620, in the test with HT-29, in the test on OVCAR-4, in the test on SN12C, in the test on OVCAR-5 and with NCI-H460 was > 100 µM (inactive) throughout. Further, the GI50 in the test with HL-60 was 69 µM (inactive); in the test on SK-MEL-2, > 100 µM (inactive); in the test on CCRF-CEM it was 95.5 µM (inactive); in the test with HCT-15, over 100 µM; in the test on IGROV-1, > 100 µM (inactive); in the test with UO-31, > 100 µM (inactive). The GI50 in the test on NCI-H226 and in the test with SF-539 was > 100 µM (inactive) each time.

For the compound `COc1ccc(/C(Cl)=C(\C=O)c2ccc(Cl)cc2)cc1`, the GI50 with NCI-H23 is 3.56 µM (inactive); in the test on SK-OV-3, 40.9 µM (inactive); in the test on SNB-19 it was 7.01 µM (inactive); in the test on UACC-62, 10.1 µM (inactive); with HOP-62 it was 19.4 µM (inactive); in the test with K562, 3.81 µM (inactive). Also, the GI50 with SW-620 is 4.12 µM (inactive); with HT-29, 4.84 µM (inactive); in the test with OVCAR-4, 8.61 µM (inactive); with SN12C, 3.08 µM (inactive); with OVCAR-5 it was 57.5 µM (inactive); in the test with NCI-H460, 3.81 µM (inactive). Also, the GI50 with HL-60 is 3.46 µM (inactive); in the test with SK-MEL-2, 3.82 µM (inactive); in the test on CCRF-CEM, 2.94 µM (inactive); with HCT-15, 3.41 µM; in the test on IGROV-1, 7.71 µM (inactive); in the test on UO-31, 4.71 µM (inactive). The results for the GI50 in the test on NCI-H226 and in the test with SF-539 were 6.35 µM (inactive) and 9.16 µM (inactive), respectively.

On to `O=C(NCCN(CCNC(=O)c1cccc(=O)n1O)CCNC(=O)c1cccc(=O)n1O)c1cccc(=O)n1O`, for which the GI50 with NCI-H23, in the test with SK-OV-3, in the test with SNB-19, in the test with UACC-62, with HOP-62 and with K562 was > 100 µM (inactive) in each case. The GI50 in the test on SW-620, in the test on HT-29, with OVCAR-4, in the test on SN12C, with OVCAR-5 and in the test on NCI-H460 was > 100 µM (inactive) in each case. Moreover, the GI50 is > 100 µM (inactive) in the test on HL-60; > 100 µM (inactive) with SK-MEL-2; > 100 µM (inactive) with CCRF-CEM; over 100 µM in the test on HCT-15; > 100 µM (inactive) with IGROV-1; > 100 µM (inactive) with UO-31. For the same compound, the GI50 with NCI-H226 and in the test with SF-539 was > 100 µM (inactive) each time.
